Source: ChEMBL document CHEMBL4834464, “Fragment-based Scaffold Hopping: Identification of Potent, Selective, and Highly Soluble Bromo and Extra Terminal Domain (BET) Second Bromodomain (BD2) Inhibitors” (J Med Chem, 2021)
Converted amounts (≈) assume the structure as drawn.

How the values were obtained:
[1] = Solubility of the compound in FaSSIF at pH 6.5 incubated for 16 hrs by HPLC gradient analysis; type: physicochemical; conditions: for solubility at 16 h: FaSSIF, pH 6.5; for solubility: simulated gi fluid, pH 6.5, 16 h
[2] = Blood clearance in male Wistar Han rat measured up to 7 hrs by LC-MS/MS analysis; type: ADME
[3] = Intrinsic clearance in human hepatocytes measured per gram of tissue incubated for 120 mins by LC-MS/MS method; type: ADME, cell-based, Hepatocyte; conditions: 2 h
[4] = Blood clearance in male Wistar Han rat at 1 mg/kg, iv and 3 mg/kg, po measured up to 7 hrs by LC-MS/MS analysis; type: ADME, organism-based
[5] = Volume of distribution at steady state in male Wistar Han rat at 1 mg/kg, iv and 3 mg/kg, po measured up to 7 hrs by LC-MS/MS analysis; type: ADME, organism-based; conditions: in vivo, read-out: Vdss
[6] = Intrinsic clearance in dog hepatocytes measured per gram of tissue by LC-MS/MS method; type: ADME, cell-based, Canis lupus familiaris, Hepatocyte
[7] = Half life in male Wistar Han rat at 1 mg/kg, iv and 3 mg/kg, po measured up to 7 hrs by LC-MS/MS analysis; type: ADME, organism-based; conditions: in vivo
[8] = Blood clearance in Beagle dog at 0.5 mg/kg, iv and 0.7 mg/kg, po measured up to 7 hrs by LC-MS/MS analysis; type: ADME, organism-based, Canis lupus familiaris
[9] = Kinetic solubility of compound […] using the charged aerosol detector (CAD) analysis; type: physicochemical; conditions: read-out: Kinetic_solubility
[10] = Oral bioavailability in Beagle dog at 0.7 mg/kg measured up to 7 hrs by LC-MS/MS analysis; type: ADME, organism-based, Canis lupus familiaris; conditions: in vivo
[11] = Distribution coefficient, logD of the compound by chromatography; type: physicochemical; conditions: octanol/water
[12] = Intrinsic clearance in Wistar han rat hepatocytes measured per gram of tissue incubated for 60 mins by LC-MS/MS method; type: ADME, cell-based, Hepatocyte; conditions: 1 h
[13] = Half life in Beagle dog at 0.5 mg/kg, iv and 0.7 mg/kg, po measured up to 7 hrs by LC-MS/MS analysis; type: ADME, organism-based, Canis lupus familiaris; conditions: in vivo
[14] = Volume of distribution at steady state in Beagle dog at 0.5 mg/kg, iv and 0.7 mg/kg, po measured up to 7 hrs by LC-MS/MS analysis; type: ADME, organism-based, Canis lupus familiaris; conditions: in vivo, read-out: Vdss
[15] = Oral bioavailability in male Wistar Han rat at 3 mg/kg measured up to 7 hrs by LC-MS/MS analysis; type: ADME, organism-based; conditions: in vivo
[16] = Permeability of compound by AMP assay; type: ADME; conditions: not told; read-out: permeability
[17] = Volume of distribution at steady state in Beagle dog at 0.5 mg/kg, iv and 1 mg/kg, po measured up to 7 hrs by LC-MS/MS analysis; type: ADME, organism-based, Canis lupus familiaris; conditions: in vivo, read-out: Vdss
[18] = Oral bioavailability in Beagle dog at 1 mg/kg measured up to 7 hrs by LC-MS/MS analysis; type: ADME, organism-based, Canis lupus familiaris; conditions: in vivo
[19] = Blood clearance in Beagle dog at 0.5 mg/kg, iv and 1 mg/kg, po measured up to 7 hrs by LC-MS/MS analysis; type: ADME, organism-based, Canis lupus familiaris
[20] = Solubility of the compound in FaSSIF at pH 6.5 using crystalline form of sample incubated for 16 hrs by HPLC gradient analysis; type: physicochemical
[21] = Solubility of the compound by CLND assay; type: physicochemical
[22] = Half life in Beagle dog at 0.5 mg/kg, iv and 1 mg/kg, po measured up to 7 hrs by LC-MS/MS analysis; type: ADME, organism-based, Canis lupus familiaris; conditions: in vivo
[23] = Oral bioavailability in male Wistar Han rat measured up to 7 hrs by LC-MS/MS analysis; type: ADME, organism-based; conditions: in vivo
[24] = Volume of distribution at steady state in male Wistar Han rat at 0.5 mg/kg, iv and 3 mg/kg, po measured up to 7 hrs by LC-MS/MS analysis; type: ADME, organism-based; conditions: in vivo, read-out: Vdss
[25] = Apparent permeability across apical to basolateral side in MDCK cells; type: ADME, cell-based, Canis lupus familiaris; conditions: dog
[26] = Half life in male Wistar Han rat at 0.5 mg/kg, iv and 3 mg/kg, po measured up to 7 hrs by LC-MS/MS analysis; type: ADME, organism-based; conditions: in vivo
[27] = Blood clearance in male Wistar Han rat at 0.5 mg/kg, iv and 3 mg/kg, po measured up to 7 hrs by LC-MS/MS analysis; type: ADME, organism-based

CNC(=O)c1cc(C(=O)NC2CC2)cn(Cc2cccc3[nH]ccc23)c1=O
solubility at 16 h [1]: 17 µg/mL (≈ 46.7 µM)
clearance [2]: 128 mL/min/kg
CLint [3]: 2.9 mL/min/g

CNC(=O)c1cc(C(=O)N[C@H]2[C@@H]3C[C@@H](O)C[C@@H]32)n([C@@H](C)c2cccc(Cl)c2)n1
clearance [4]: 21 mL/min/kg
Vd [5]: 2.6 L/kg
CLint [6]: < 0.65 mL/min/g
half-life [7]: 2.9 h
clearance [8]: 2 mL/min/kg
solubility kinetic [9]: 175 µg/mL (≈ 434 µM)
bioavailability [10]: 58%
chromatographic logD [11]: 3.4
CLint [12]: 1 mL/min/g
half-life [13]: 5 h
Vd [14]: 0.8 L/kg
bioavailability [15]: 57%
Papp [16]: 19.7 ×10⁻⁶ cm/s
CLint [3]: < 0.45 mL/min/g

CNC(=O)c1cc(C(=O)N[C@H]2CC[C@H](OC)CC2)n([C@@H](C)c2ccccc2)n1
clearance [4]: 32 mL/min/kg
Vd [5]: 2.4 L/kg
CLint [6]: < 0.65 mL/min/g
Vd [17]: 2.1 L/kg
half-life [7]: 1 h
bioavailability [18]: 95%
clearance [19]: 6 mL/min/kg
solubility thermodynamic at 16 h [20]: 355 µg/mL (≈ 923 µM)
chromatographic logD [11]: 4.2
solubility kinetic [21]: ≥ 161 µg/mL
CLint [12]: 1.7 mL/min/g
half-life [22]: 4.1 h
bioavailability [15]: 80%
Papp [16]: 36 ×10⁻⁶ cm/s
CLint [3]: < 0.45 mL/min/g

CNC(=O)c1cc(C(=O)NC2CC2)cn(Cc2ccccc2)c1=O [GSK620]
solubility at 16 h [1]: 13 µg/mL (≈ 40 µM)
clearance [2]: 75 mL/min/kg
CLint [3]: 3.1 mL/min/g

CNC(=O)c1cc(C(=O)N[C@H]2[C@@H]3COC[C@@H]32)cc2c1O[C@H](CF)[C@H]2c1ccccc1 [GSK973]
chromatographic logD [11]: 3.6
clearance [2]: 180 mL/min/kg
bioavailability [23]: 48%
Papp [16]: 16.5 ×10⁻⁶ cm/s
CLint [3]: 3.6 mL/min/g

CNC(=O)c1cc(C(=O)N[C@H]2CC[C@H](O)CC2)c([C@@H](C)c2cccc(Cl)c2)o1
clearance [4]: 55 mL/min/kg
Vd [5]: 2.7 L/kg
CLint [6]: 0.71 mL/min/g
Vd [17]: 0.9 L/kg
half-life [7]: 0.9 h
solubility at 16 h [1]: 408 µg/mL (≈ 1010 µM)
solubility kinetic [9]: ≥ 179 µg/mL
bioavailability [18]: 62%
clearance [19]: 3.6 mL/min/kg
chromatographic logD [11]: 3.5
CLint [12]: 1.5 mL/min/g
half-life [22]: 3.1 h
bioavailability [15]: 37%
Papp [16]: 15 ×10⁻⁶ cm/s
CLint [3]: < 0.45 mL/min/g

CNC(=O)c1cc(C(=O)N[C@H]2[C@@H]3COC[C@@H]32)c([C@@H](C)c2ccccc2)o1
clearance [4]: 55 mL/min/kg
Vd [5]: 2.7 L/kg
CLint [6]: < 0.65 mL/min/g
Vd [17]: 1.1 L/kg
half-life [7]: 0.7 h
bioavailability [18]: 100%
clearance [19]: 2.9 mL/min/kg
solubility thermodynamic at 16 h [20]: 980 µg/mL (≈ 2770 µM)
chromatographic logD [11]: 4.1
solubility kinetic [21]: ≥ 131 µg/mL
CLint [12]: < 0.8 mL/min/g
half-life [22]: 5 h
bioavailability [15]: 100%
Papp [16]: 20 ×10⁻⁶ cm/s
CLint [3]: < 0.45 mL/min/g

CNC(=O)c1cc(C(=O)N[C@H]2CC[C@H](O)CC2)n([C@@H](C)c2ccccc2)n1
CLint [6]: < 0.7 mL/min/g
Vd [17]: 0.9 L/kg
Vd [24]: 1.1 L/kg
solubility [1]: 366 µg/mL (≈ 988 µM)
bioavailability [18]: 30%
clearance [19]: 1 mL/min/kg
Papp A→B [25]: 4.1 ×10⁻⁶ cm/s
chromatographic logD [11]: 2.9
solubility kinetic [21]: ≥ 180 µg/mL
CLint [12]: 0.9 mL/min/g
half-life [22]: 9 h
half-life [26]: 1.3 h
clearance [27]: 13 mL/min/kg
bioavailability [15]: 58%
Papp [16]: 8 ×10⁻⁶ cm/s
CLint [3]: < 0.5 mL/min/g

CNC(=O)c1cc(C(=O)N[C@H]2[C@@H]3C[C@@H](O)C[C@@H]32)c([C@@H](C)c2ccccc2)o1
clearance [4]: 41 mL/min/kg
Vd [5]: 2.3 L/kg
CLint [6]: < 0.65 mL/min/g
Vd [17]: 1.1 L/kg
half-life [7]: 1.2 h
bioavailability [18]: 58%
clearance [19]: 5 mL/min/kg
solubility thermodynamic at 16 h [20]: 736 µg/mL (≈ 2000 µM)
chromatographic logD [11]: 2.8
solubility kinetic [21]: ≥ 172 µg/mL
CLint [12]: < 0.8 mL/min/g
half-life [22]: 2.5 h
bioavailability [15]: 67%
Papp [16]: 4.5 ×10⁻⁶ cm/s
CLint [3]: < 0.45 mL/min/g

CC(=O)Nc1c(F)cc(C(=O)N[C@H]2CC[C@H](O)CC2)cc1O[C@@H](C)c1ccccc1 [GSK046]
solubility kinetic [9]: ≥ 159 µg/mL
chromatographic logD [11]: 2.8
clearance [2]: 82 mL/min/kg
bioavailability [23]: 31%
CLint [3]: 2.8 mL/min/g

CNC(=O)c1cc(C(=O)N[C@H]2CC[C@H](O)CC2)c([C@@H](C)c2ccccc2)o1
clearance [4]: 30 mL/min/kg
Vd [5]: 2.1 L/kg
CLint [6]: < 0.7 mL/min/g
Vd [17]: 0.8 L/kg
half-life [7]: 1.3 h
solubility [1]: 827 µg/mL (≈ 2230 µM)
bioavailability [18]: 84%
clearance [19]: 1.9 mL/min/kg
Papp A→B [25]: 4.9 ×10⁻⁶ cm/s
chromatographic logD [11]: 2.8
solubility kinetic [21]: ≥ 184 µg/mL
CLint [12]: 0.8 mL/min/g
half-life [22]: 5.2 h
bioavailability [15]: 72%
Papp [16]: 4.2 ×10⁻⁶ cm/s
CLint [3]: < 0.5 mL/min/g
